Source: PubChem BioAssay (NCI)
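Compound exposure: 48 hours, 5 concentrations, 96-well plates. GI50 = concentration required for 50% inhibition of growth. At the TGI there is no net growth.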

Columns and labels:
Assay in all cases: growth of human tumour cells (NCI), 48 h
ACHN renal = test system: ACHN renal
HCC-2998 colon = test system: HCC-2998 colon
M14 melanoma = test system: M14 melanoma
RPMI-8226 leukemia = test system: RPMI-8226 leukemia
SF-268 CNS = test system: SF-268 CNS
SK-MEL-5 melanoma = test system: SK-MEL-5 melanoma
SNB-75 CNS = test system: SNB-75 CNS
SR leukemia = test system: SR leukemia
DMS 273 small cell lung = test system: DMS 273 small cell lung
HOP-18 NSCLC = test system: HOP-18 NSCLC

Cc1cc(NCCCNc2ccnc3cc(Cl)ccc23)nc(N2CCN(C)CC2)n1
GI50 (ACHN renal): 3.71 µM
TGI (ACHN renal): 21 µM
GI50 (HCC-2998 colon): 2.36 µM
TGI (HCC-2998 colon): 11.1 µM
GI50 (M14 melanoma): 1.94 µM
TGI (M14 melanoma): 3.61 µM
GI50 (RPMI-8226 leukemia): 2.56 µM
TGI (RPMI-8226 leukemia): 7.45 µM
GI50 (SF-268 CNS): 6.74 µM
TGI (SF-268 CNS): 26.3 µM
GI50 (SK-MEL-5 melanoma): 1.67 µM
TGI (SK-MEL-5 melanoma): 3.24 µM
GI50 (SNB-75 CNS): 13 µM
TGI (SNB-75 CNS): 34.4 µM
GI50 (SR leukemia): 1.81 µM
TGI (SR leukemia): 6.41 µM

CCOC(=O)c1sc2ncn(Cc3cccc(Br)c3)c(=O)c2c1C
GI50 (ACHN renal): 84.6 µM
TGI (ACHN renal): > 100 µM
GI50 (HCC-2998 colon): 66.8 µM
TGI (HCC-2998 colon): > 100 µM
GI50 (M14 melanoma): 20.9 µM
TGI (M14 melanoma): 53.8 µM
GI50 (RPMI-8226 leukemia): 27.6 µM
TGI (RPMI-8226 leukemia): > 100 µM
GI50 (SF-268 CNS): 54.9 µM
TGI (SF-268 CNS): > 100 µM
GI50 (SK-MEL-5 melanoma): 25.7 µM
TGI (SK-MEL-5 melanoma): 96 µM
GI50 (SNB-75 CNS): 69.2 µM
TGI (SNB-75 CNS): > 100 µM
GI50 (SR leukemia): 8.18 µM
TGI (SR leukemia): 88.7 µM

O=c1c2c3c(sc2n2c(-c4cc(-c5ccccc5)no4)nnc2n1Cc1ccccc1)CCCC3
GI50 (ACHN renal): 9.32 µM
TGI (ACHN renal): > 100 µM
GI50 (HCC-2998 colon): 20.7 µM
TGI (HCC-2998 colon): > 76.6 µM
GI50 (M14 melanoma): 27.2 µM
TGI (M14 melanoma): > 100 µM
GI50 (RPMI-8226 leukemia): 4.23 µM
TGI (RPMI-8226 leukemia): > 48.8 µM
GI50 (SF-268 CNS): 15.6 µM
TGI (SF-268 CNS): 68.3 µM
GI50 (SK-MEL-5 melanoma): 9.77 µM
TGI (SK-MEL-5 melanoma): 22.9 µM
GI50 (SNB-75 CNS): 11.2 µM
TGI (SNB-75 CNS): > 100 µM
GI50 (SR leukemia): 4.94 µM
TGI (SR leukemia): > 42 µM

CCCc1cc(O)c2c3c(c(=O)oc2c1)CN(C)CC3
GI50 (ACHN renal): > 100 µM
TGI (ACHN renal): > 100 µM
GI50 (HCC-2998 colon): 30.7 µM
TGI (HCC-2998 colon): 69.7 µM
GI50 (M14 melanoma): 32.5 µM
TGI (M14 melanoma): > 100 µM
GI50 (RPMI-8226 leukemia): 24.2 µM
TGI (RPMI-8226 leukemia): 91.2 µM
GI50 (SF-268 CNS): > 100 µM
TGI (SF-268 CNS): > 100 µM
GI50 (SK-MEL-5 melanoma): 19 µM
TGI (SK-MEL-5 melanoma): 44.7 µM
GI50 (SNB-75 CNS): 22.1 µM
TGI (SNB-75 CNS): > 100 µM
GI50 (SR leukemia): 36.1 µM
TGI (SR leukemia): > 100 µM

N#Cc1cccc(OCc2nc(N)nc(N)c2-c2ccc(Cl)c(Cl)c2)c1
GI50 (ACHN renal): 0.896 µM
TGI (ACHN renal): > 100 µM
GI50 (HCC-2998 colon): 4.11 µM
TGI (HCC-2998 colon): > 100 µM
GI50 (M14 melanoma): 0.639 µM
TGI (M14 melanoma): > 100 µM
GI50 (RPMI-8226 leukemia): 4.65 µM
TGI (RPMI-8226 leukemia): > 100 µM
GI50 (SF-268 CNS): 3.05 µM
TGI (SF-268 CNS): > 100 µM
GI50 (SK-MEL-5 melanoma): 1.29 µM
TGI (SK-MEL-5 melanoma): > 100 µM
GI50 (SNB-75 CNS): 5.67 µM
TGI (SNB-75 CNS): > 100 µM
GI50 (SR leukemia): 2.39 µM
TGI (SR leukemia): > 100 µM

Cc1cc2cc3cc(C)c(N(C)C)cc3[n+](C)c2cc1N(C)C
GI50 (ACHN renal): 3.69 µM
TGI (ACHN renal): > 100 µM
GI50 (HCC-2998 colon): 3.45 µM
TGI (HCC-2998 colon): 16.7 µM
GI50 (M14 melanoma): 4.68 µM
TGI (M14 melanoma): 19.8 µM
GI50 (RPMI-8226 leukemia): 4.54 µM
TGI (RPMI-8226 leukemia): > 100 µM
GI50 (SF-268 CNS): 4.1 µM
TGI (SF-268 CNS): 20.5 µM
GI50 (SK-MEL-5 melanoma): 2.1 µM
TGI (SK-MEL-5 melanoma): 6.96 µM
GI50 (SNB-75 CNS): 3.7 µM
TGI (SNB-75 CNS): 31.4 µM
GI50 (SR leukemia): 3.16 µM
TGI (SR leukemia): > 100 µM

CN(C)CCN(C)CC1COC(C)(C)O1 (stereo not drawn)
TGI (ACHN renal): > 100 µM
TGI (DMS 273 small cell lung): > 100 µM
TGI (HCC-2998 colon): > 100 µM
TGI (HOP-18 NSCLC): > 100 µM
TGI (M14 melanoma): > 100 µM
TGI (RPMI-8226 leukemia): > 100 µM
TGI (SF-268 CNS): > 100 µM
TGI (SK-MEL-5 melanoma): > 100 µM
TGI (SNB-75 CNS): > 100 µM
TGI (SR leukemia): > 100 µM

CC/C(=C(/c1ccc(OCCN(C)C)cc1)c1ccc(OC(=O)CCC(=O)c2c(C)[nH]c(/C=C3\N=C(c4ccc[nH]4)C=C3OC)c2C)cc1)c1ccccc1
GI50 (ACHN renal): 2.57 µM
TGI (ACHN renal): 15.9 µM
GI50 (HCC-2998 colon): 3.72 µM
TGI (HCC-2998 colon): 13.4 µM
GI50 (M14 melanoma): 2.06 µM
TGI (M14 melanoma): 4.92 µM
GI50 (RPMI-8226 leukemia): 1.57 µM
TGI (RPMI-8226 leukemia): 5.58 µM
GI50 (SF-268 CNS): 2.62 µM
TGI (SF-268 CNS): 17.8 µM
GI50 (SK-MEL-5 melanoma): 1.31 µM
TGI (SK-MEL-5 melanoma): 2.62 µM
GI50 (SNB-75 CNS): 2.45 µM
TGI (SNB-75 CNS): 9.86 µM
GI50 (SR leukemia): 0.694 µM
TGI (SR leukemia): 5.38 µM

COC(c1cccc(C(O)(C(F)(F)F)C(F)(F)F)c1)(C(F)(F)F)C(F)(F)F
TGI (ACHN renal): 29.2 µM
TGI (DMS 273 small cell lung): 34.8 µM
TGI (HCC-2998 colon): 21.7 µM
TGI (HOP-18 NSCLC): 32.1 µM
TGI (M14 melanoma): 34 µM
TGI (SF-268 CNS): 38.5 µM
TGI (SNB-75 CNS): 32.1 µM
TGI (SR leukemia): 51.4 µM

Oc1ccc(CN2CCC(N3CCOCC3)CC2)c2cccnc12
GI50 (ACHN renal): 25.1 µM
TGI (ACHN renal): > 100 µM
GI50 (HCC-2998 colon): 51.7 µM
TGI (HCC-2998 colon): > 100 µM
GI50 (M14 melanoma): 26.9 µM
TGI (M14 melanoma): > 100 µM
GI50 (RPMI-8226 leukemia): 32.7 µM
TGI (RPMI-8226 leukemia): > 100 µM
GI50 (SF-268 CNS): 16.3 µM
TGI (SF-268 CNS): > 100 µM
GI50 (SK-MEL-5 melanoma): 23.2 µM
TGI (SK-MEL-5 melanoma): 57 µM
GI50 (SNB-75 CNS): 11.9 µM
TGI (SNB-75 CNS): > 100 µM
GI50 (SR leukemia): 34 µM
TGI (SR leukemia): > 100 µM

CN(CCCCCl)P(=O)(OCc1ccc([N+](=O)[O-])o1)OCC1OC(n2ccc(N)nc2=O)C(F)(F)C1O (stereo not drawn)
GI50 (ACHN renal): 0.0374 µM
GI50 (HCC-2998 colon): 3.15 µM
TGI (HCC-2998 colon): 49.1 µM
GI50 (M14 melanoma): 0.0537 µM
TGI (M14 melanoma): 0.269 µM
GI50 (RPMI-8226 leukemia): 1.87 µM
TGI (RPMI-8226 leukemia): > 100 µM
GI50 (SF-268 CNS): 0.257 µM
GI50 (SK-MEL-5 melanoma): 3.2 µM
TGI (SK-MEL-5 melanoma): > 67.1 µM
GI50 (SNB-75 CNS): 12.5 µM
TGI (SNB-75 CNS): 97.5 µM
GI50 (SR leukemia): 0.801 µM
TGI (SR leukemia): 5.63 µM

CC(C)Nc1ccc(Nc2ccccc2)cc1
GI50 (ACHN renal): 3.31 µM
TGI (ACHN renal): 15 µM
GI50 (HCC-2998 colon): 25.3 µM
TGI (HCC-2998 colon): > 100 µM
GI50 (M14 melanoma): 14.9 µM
TGI (M14 melanoma): 33 µM
GI50 (RPMI-8226 leukemia): 3.68 µM
TGI (RPMI-8226 leukemia): 19.5 µM
GI50 (SF-268 CNS): 17 µM
TGI (SF-268 CNS): 50.4 µM
GI50 (SK-MEL-5 melanoma): 11.4 µM
TGI (SK-MEL-5 melanoma): 24.9 µM
GI50 (SNB-75 CNS): 21.5 µM
TGI (SNB-75 CNS): > 100 µM
GI50 (SR leukemia): 15.7 µM
TGI (SR leukemia): 49.3 µM

CC(C)[C@H]1CC[C@H]2[C@@H](CC[C@H]3[C@](C)(CN)CCC[C@]23C)C1
GI50 (ACHN renal): 2.42 µM
TGI (ACHN renal): 6.44 µM
GI50 (HCC-2998 colon): 1.79 µM
TGI (HCC-2998 colon): 3.18 µM
GI50 (M14 melanoma): 1.77 µM
TGI (M14 melanoma): 3.18 µM
GI50 (RPMI-8226 leukemia): 2.9 µM
TGI (RPMI-8226 leukemia): 12.2 µM
GI50 (SF-268 CNS): 2.36 µM
TGI (SF-268 CNS): 6.04 µM
GI50 (SK-MEL-5 melanoma): 4.87 µM
TGI (SK-MEL-5 melanoma): 17.3 µM
GI50 (SNB-75 CNS): 6.95 µM
TGI (SNB-75 CNS): 21.3 µM
GI50 (SR leukemia): 2.65 µM
TGI (SR leukemia): 15.2 µM

N#Cc1ncc(-c2ccc(C(F)(F)F)cc2)c(NCc2cc(C(F)(F)F)cc(C(F)(F)F)c2)n1
GI50 (ACHN renal): 3.62 µM
TGI (ACHN renal): > 100 µM
GI50 (HCC-2998 colon): 4.17 µM
TGI (HCC-2998 colon): > 100 µM
GI50 (M14 melanoma): 5.19 µM
TGI (M14 melanoma): > 100 µM
GI50 (RPMI-8226 leukemia): 2.29 µM
TGI (RPMI-8226 leukemia): 5.87 µM
GI50 (SF-268 CNS): 8.17 µM
TGI (SF-268 CNS): > 100 µM
GI50 (SK-MEL-5 melanoma): 3.91 µM
TGI (SK-MEL-5 melanoma): 15 µM
GI50 (SNB-75 CNS): 3.19 µM
TGI (SNB-75 CNS): 68.8 µM
GI50 (SR leukemia): 2.97 µM
TGI (SR leukemia): 13.8 µM
